Laboratory results from patent US11492359B2, “Near-infrared nerve-sparing fluorophores” (OREGON HEALTH & SCIENCE UNIVERSITY, priority 2018, dated 2022).

Key:
[1] = system: murine brachial plexus and sciatic nerves; assay: Nerve-specificity screening using systemic administration; format: in vivo; details: for nerve specificity / nerve contrast (N/M vs control group) following systemic administration: IV, 200 nmol, 4 hours prior to imaging; for N/M and N/A ratios vs unstained control animals: systemic administration
[2] = system: murine brachial plexus and sciatic nerves; assay: Nerve-specificity screening using direct/topical administration; format: in vivo, mouse; details: for nerve specificity (N/M contrast vs control group) via direct administration: 125 μM, imaged 30 minutes after staining; for N/M and N/A ratios vs unstained control animals: direct administration
Experimental: (§1) All reagents were purchased from Sigma Aldrich, Fisher Scientific, TCI, or Ark Pharm. Unless otherwise indicated, all commercially available starting materials were used directly without further purification. Analytical thin layer chromatography (TLC) was performed on Millipore ready-to-use plates with silica gel 60 (F254, 32-63 μm). Flash chromatography was performed on Sorbent Technologies silica gel for column chromatography or on a Biotage Isolera Flash System using SNAP Ultra cartridges. High-resolution mass spectra (HRMS) were measured on a ThermoElectron LTQ-Orbitrap high resolution mass spectrometer with a dedicated Accela HPLC system, or an Agilent 6244 time-of-flight LCMS with diode array detector VL+. LCMS and Purity Characterization Mass-to-charge ratio and purity of the Oxazine compounds were characterized on an Agilent 6244 time-of-flight tandem liquid chromatography mass spectroscopy (LCMS) with diode array detector VL+. Sample (10 μL) was injected into a C18 column (Poroshell 120, 4.6×50 mm, 2.7 micron), and eluted with a solvent system of A (H2O, 0.1% FA) and B (MeCN, 01.% FA) at 0.4 mL/min, from A/B=90/10 to 5/95 over 10 min, maintained at A/B=5/95 for additional 5 min. Ions were detected in positive ion mode by setting the capillary voltage at 4 kV and gas temperature at 350° C. Purity was calculated through area under the curve analysis of the absorbance at 254 nm. UV-Vis Absorption and Fluorescence Spectroscopy. UV-Vis spectra were collected with a Cary 50 UV-Vis spectrophotometer at room temperature, using a 1-cm quartz cuvette. Fluorescence spectra were collected on a Cary Eclipse fluorescence spectrophotometer (Agilent Technologies). All absorbance spectra were reference corrected. Extinction coefficient was calculated from Beer's Law plots of absorbance versus concentration. Fluorescence spectra were corrected for the wavelength dependent response of the R928 photomultiplier tube using a manufacturer generated correction file. Relative quantum yields are reported as the average of multiple measurements using multiple references, including Oxazine 1, Oxazine 170, and Rhodamine 101. Physicochemical Property Calculation. Physicochemical partition coefficients (Log D) values at pH 7.4, number of hydrogen bond donors and acceptors, polar surface area, and the number of rotatable bonds were calculated using Marvin and JChem calculator plugins (ChemAxon, Budapest, Hungary). Nerve-Specificity Screening using Direct/Topical Administration Each compound was screened for its tissue-specificity using a previously published direct/topical administration strategy in murine brachial plexus and sciatic nerves.^1 Each compound from the Oxazine library was formulated in the previously utilized co-solvent formulation (10% DMSO, 5% Kolliphor, 65% serum and 20% phosphate buffered saline) at 125 μM. 100 μL of the formulated Oxazine were incubated on the exposed brachial plexus or sciatic nerve for 5 minutes. The fluorophore containing solution was removed and the area was irrigated with saline 18 times to remove any unbound fluorophore. Co-registered fluorescence and color images were collected of each stained area 30 minutes after Oxazine direct/topical administration using a custom built macroscopic imaging system with 620/60 nm excitation and 700/75 nm bandpass emission filters. Custom written MatLab code was used to analyze the tissue specific fluorescence where regions of interest were selected on the nerve, muscle and adipose tissue using the white light images. These regions of interest were then analyzed on the co-registered matched fluorescence images permitting assessment of the nerve to muscle and nerve to adipose ratios in blinded manner. […]

[3] = UV-Vis absorption and fluorescence spectroscopy of the Oxazine library; format: physicochemical; details: for Extinction coefficient: Beer's Law plots; for Quantum yield: relative, references Oxazine 1, Oxazine 170, Rhodamine 101
Experimental: as §1

| Structure (SMILES) | nerve specificity / nerve contrast (N/M vs control group) following systemic administration [1] | N/M and N/A ratios vs unstained control animals [1] | nerve specificity (N/M contrast vs control group) via direct administration [2] | N/M and N/A ratios vs unstained control animals [2] | Max Abs [3] | Max Em [3] | Max Ex [3] | Extinction coefficient [3] | Quantum yield [3] |
| --- | --- | --- | --- | --- | --- | --- | --- | --- | --- |
| CC[N+](CC)=c1ccc2nc3ccc(N(C)C)cc3oc-2c1 [LGW03-76, N-(7-(dimethylamino)-3H-phenoxazin-3-ylidene)-N-ethylethanaminium] | high nerve specificity | significantly higher N/M and N/A ratios than unstained control animals | high nerve specificity | significantly higher N/M and N/A ratios than unstained control animals | 654 nm | 669 nm | 655 nm | 66111 M⁻¹ cm⁻¹ | 7.99% |
| CC[N+](CC)=c1ccc2nc3ccc(N4CCCC4)cc3oc-2c1 [LGW03-07, N-ethyl-N-(7-(pyrrolidin-1-yl)-3H-phenoxazin-3-ylidene)ethanaminium] | positive | – | negative nerve specificity | – | 654 nm | 672 nm | 660 nm | 52356 M⁻¹ cm⁻¹ | 9.28% |
| CC/N=c1/cc2oc3cc(NCC)c(F)cc3nc-2cc1F [LGW05-91, (Z)—N-(7-(ethylamino)-2,8-difluoro-3H-phenoxazin-3-ylidene)ethanaminium] | negative for nerve contrast | – | positive nerve specificity | – | 606 nm | 626 nm | 610 nm | 16763 M⁻¹ cm⁻¹ | 33.45% |
| CC/N=c1/cc2oc3cc4c(cc3nc-2cc1C)CCN4 [LGW05-85, (Z)—N-(7-methyl-2,3-dihydropyrrolo[3,2-b]phenoxazin-8(1H)-ylidene)ethanaminium] | negative for nerve contrast | – | positive nerve specificity | – | 613 nm | 640 nm | 615 nm | 45382 M⁻¹ cm⁻¹ | 41.05% |
| CC1=CC(C)(C)Nc2cc3c(cc21)N=c1cc2c(cc1O3)=NC(C)(C)C=C2C [LGW03-01, 2,2,4,8,10,10-hexamethyl-10,11-dihydro-2H-dipyrido[3,2-b:2′,3′-i]phenoxazin-1-ium] | negative for nerve contrast | – | positive nerve specificity | – | 677 nm | 695 nm | 680 nm | 44453 M⁻¹ cm⁻¹ | 17.27% |
| CCCNc1cc2oc3cc(=[N+](CC)CC)ccc-3nc2cc1C [LGW04-31, N-ethyl-N-(8-methyl-7-(propylamino)-3H-phenoxazin-3-ylidene)ethanaminium] | high nerve specificity | significantly higher N/M and N/A ratios than unstained control animals | high nerve specificity | significantly higher N/M and N/A ratios than unstained control animals | 641 nm | 661 nm | 640 nm | 59586 M⁻¹ cm⁻¹ | 5.01% |
| CC/N=c1/cc2oc3cc(N(CC)CC)c(C)cc3nc-2cc1C [LGW01-23, (Z)—N-(7-(diethylamino)-2,8-dimethyl-3H-phenoxazin-3-ylidene)ethanaminium] | negative for nerve contrast | – | positive nerve specificity | – | 645 nm | 635 nm | 620 nm | 62445 M⁻¹ cm⁻¹ | 0.67% |
| CC[N+](CC)=c1ccc2nc3cc(C)c(N)cc3oc-2c1 [LGW06-11, N-(7-amino-8-methyl-3H-phenoxazin-3-ylidene)-N-ethylethanaminium] | negative for nerve contrast | – | positive nerve specificity | – | 628 nm | 650 nm | 625 nm | 31843 M⁻¹ cm⁻¹ | 2.52% |
| CCN(CC)c1cc2oc3cc(=[N+](CC)CC)ccc-3nc2cc1C [LGW03-23, N-(7-(diethylamino)-8-methyl-3H-phenoxazin-3-ylidene)-N-ethylethanaminium] | negative for nerve contrast | – | positive nerve specificity | – | 664 nm | 690 nm | 645 nm | 23099 M⁻¹ cm⁻¹ | 1.53% |
| CC/N=c1\ccc2nc3ccc(NCC)cc3oc-2c1 [LGW01-21, (E)-N-(7-(ethylamino)-3H-phenoxazin-3-ylidene)ethanaminium] | negative for nerve contrast | – | positive nerve specificity | – | 617 nm | 634 nm | 620 nm | 28745 M⁻¹ cm⁻¹ | 30.12% |
| CC[N+](CC)=c1ccc2nc3cc4c(cc3oc-2c1)NCCO4 [LGW03-37, N-(3,4-dihydro-[1,4]oxazino[2,3-b]phenoxazin-8(2H)-ylidene)-N-ethylethanaminium] | negative for nerve contrast | – | positive nerve specificity | – | 646 nm | 670 nm | 650 nm | 48849 M⁻¹ cm⁻¹ | 4.34% |
| CC/N=c1/cc2oc3cc4c(cc3nc-2cc1C)C(C)=CC(C)(C)N4CC [LGW03-57, (Z)—N-(1-ethyl-2,2,4,8-tetramethyl-1,2-dihydro-9H-pyrido[3,2-b]phenoxazin-9-ylidene)ethanaminium] | negative for nerve contrast | – | positive nerve specificity | – | 661 nm | 680 nm | 665 nm | 54072 M⁻¹ cm⁻¹ | 18.17% |
| CCN1CCc2cc3nc4ccc(=[N+](CC)CC)cc-4oc3cc21 [LGW05-84, N-ethyl-N-(1-ethyl-2,3-dihydropyrrolo[3,2-b]phenoxazin-8(1H)-ylidene)ethanaminium] | positive | – | negative nerve specificity | – | 643 nm | 675 nm | 650 nm | 46048 M⁻¹ cm⁻¹ | 4.85% |
| CC/N=c1/cc2oc3cc(N)c(C)cc3nc-2cc1C [LGW06-10, (Z)—N-(7-amino-2,8-dimethyl-3H-phenoxazin-3-ylidene)ethanaminium] | negative for nerve contrast | – | positive nerve specificity | – | 602 nm | 621 nm | 605 nm | 55807 M⁻¹ cm⁻¹ | 26.54% |
